Test results reported in US8063048B2, “Acetylenyl-pyrazolo-pyrimidine derivatives” (Hoffmann-La Roche Inc., priority 2005, dated 2011).

Structure (SMILES) | melting point [°C]
CCOc1cccc(-c2cc(C(F)F)n3ncc(C#Cc4cccc(S(N)(=O)=O)c4)c3n2)c1 [Example 201, 3-[7-Difluoromethyl-5-(3-ethoxy-phenyl)-pyrazolo[1,5-a]pyrimidin-3-ylethynyl]-benzenesulfonamide] | 167 to 168
Cc1cc(-c2ccc(C(F)(F)F)cc2)nc2c(C#Cc3ccc(S(N)(=O)=O)s3)cnn12 [Example 152, 5-[7-Methyl-5-(4-trifluoromethyl-phenyl)-pyrazolo[1,5-a]pyrimidin-3-ylethynyl]-thiophene-2-sulfonic acid amide] | 214 to 215
Cc1cc(-c2cc(C(F)F)n3ncc(C#Cc4cccc(S(N)(=O)=O)c4)c3n2)ccc1Cl [Example 168, 3-[5-(4-Chloro-3-methyl-phenyl)-7-difluoromethyl-pyrazolo[1,5-a]pyrimidin-3-ylethynyl]-benzenesulfonamide] | 215
NS(=O)(=O)c1cncc(C#Cc2cnn3c(C(F)(F)F)cc(-c4ccc(C(F)(F)F)cc4)nc23)c1 [Example 5, 5-[7-Trifluoromethyl-5-(4-trifluoromethyl-phenyl)-pyrazolo[1,5-a]pyrimidin-3-ylethynyl]-pyridine-3-sulfonic acid amide] | 239 to 240
Nc1cnc(C#Cc2cnn3c(C(F)F)cc(-c4ccc(C(F)(F)F)cc4)nc23)cn1 [Example 287, 5-[7-Difluoromethyl-5-(4-trifluoromethyl-phenyl)-pyrazolo[1,5-a]pyrimidin-3-ylethynyl]-pyrazin-2-ylamine] | 233
NS(=O)(=O)c1ccc(C#Cc2cnn3c(CO)cc(-c4ccc(Cl)cc4)nc23)cc1 [Example 155, 4-[5-(4-Chloro-phenyl)-7-hydroxymethyl-pyrazolo[1,5-a]pyrimidin-3-ylethynyl]-benzenesulfonamide] | 238 to 240
NS(=O)(=O)c1cccc(C#Cc2cnn3c(C(F)F)cc(-c4cccc(C(F)(F)F)c4)nc23)c1 [Example 167, 3-[7-Difluoromethyl-5-(3-trifluoromethyl-phenyl)-pyrazolo[1,5-a]pyrimidin-3-ylethynyl]-benzenesulfonamide] | 199
FC(F)(F)c1ccc(-c2cc(C(F)(F)F)n3ncc(C#Cc4ccccn4)c3n2)cc1 [Example 6, 3-Pyridin-2-ylethynyl-7-trifluoromethyl-5-(4-trifluoromethyl-phenyl)-pyrazolo[1,5-a]pyrimidine] | 158 to 159
O=S(=O)(NC(CO)CO)c1ccc(C#Cc2cnn3c(C(F)F)cc(-c4ccc(C(F)(F)F)cc4)nc23)s1 [Example 270, 5-[7-Difluoromethyl-5-(4-trifluoromethyl-phenyl)-pyrazolo[1,5-a]pyrimidin-3-ylethynyl]-thiophene-2-sulfonic acid (2-hydroxy-1-hydroxymethyl-ethyl)-amide] | 152
O=S(=O)(c1cccc(C#Cc2cnn3c(C(F)F)cc(-c4ccc(C(F)(F)F)cc4)nc23)c1)N1CCOCC1 [Example 144, 7-Difluoromethyl-3-[3-(morpholine-4-sulfonyl)-phenylethynyl]-5-(4-trifluoromethyl-phenyl)-pyrazolo[1,5-a]pyrimidine] | 175 to 176
Cc1cc(-c2ccc(Cl)cc2)nc2c(C#Cc3ccc(C(C)(C)O)cc3)cnn12 [Example 301, 2-{4-[5-(4-Chloro-phenyl)-7-methyl-pyrazolo[1,5-a]pyrimidin-3-ylethynyl]-phenyl}-propan-2-ol] | 112 to 115
Cc1cc(-c2cc(C(F)(F)F)n3ncc(C#Cc4ncc(S(=O)(=O)NC(C)(C)CO)s4)c3n2)ccc1Cl [Example 106, 2-[5-(4-Chloro-3-methyl-phenyl)-7-trifluoromethyl-pyrazolo[1,5-a]pyrimidin-3-ylethynyl]-thiazole-5-sulfonic acid (2-hydroxy-1,1-dimethyl-ethyl)-amide] | 217
Cc1cc(-c2ccc(C(F)(F)F)cc2)nc2c(C#Cc3ccc(S(=O)(=O)NC(CO)CO)s3)cnn12 [Example 308, 5-[7-Methyl-5-(4-trifluoromethyl-phenyl)-pyrazolo[1,5-a]pyrimidin-3-ylethynyl]-thiophene-2-sulfonic acid (2-hydroxy-1-hydroxymethyl-ethyl)-amide] | 148 to 152
NS(=O)(=O)c1ccc(C#Cc2cnc3c(C4CC4)cc(-c4ccc(C(F)(F)F)cc4)cn23)s1 [Example 224, 5-[8-Cyclopropyl-6-(4-trifluoromethyl-phenyl)-imidazo[1,2-a]pyridin-3-ylethynyl]-thiophene-2-sulfonic acid amide] | 261
CC(C)(O)c1ccc(C#Cc2cnn3c(C(F)(F)F)cc(-c4ccc(C(F)(F)F)cc4)nc23)cc1 [Example 202, 2-{4-[7-Trifluoromethyl-5-(4-trifluoromethyl-phenyl)-pyrazolo[1,5-a]pyrimidin-3-ylethynyl]-phenyl}-propan-2-ol] | 170 to 171
CCOc1cc(-c2cc(C(F)(F)F)n3ncc(C#Cc4ccc(N)nc4)c3n2)ccc1C(F)(F)F [Example 189, 5-[5-(3-Ethoxy-4-trifluoromethyl-phenyl)-7-trifluoromethyl-pyrazolo[1,5-a]pyrimidin-3-ylethynyl]-pyridin-2-ylamine] | 218
NS(=O)(=O)c1cncc(C#Cc2cnn3c(C(F)F)cc(-c4ccc(C(F)(F)F)cc4)nc23)c1 [Example 30, 5-[7-Difluoromethyl-5-(4-trifluoromethyl-phenyl)-pyrazolo[1,5-a]pyrimidin-3-ylethynyl]-pyridine-3-sulfonic acid amide] | 238
N#CCCNS(=O)(=O)c1cccc(C#Cc2cnn3c(C(F)(F)F)cc(-c4ccc(C(F)(F)F)cc4)nc23)c1 [Example 47, N-(2-Cyano-ethyl)-3-[7-trifluoromethyl-5-(4-trifluoromethyl-phenyl)-pyrazolo[1,5-a]pyrimidin-3-ylethynyl]-benzenesulfonamide] | 174 to 182
CC(C)(C)NS(=O)(=O)c1cccc(C#Cc2cnn3c(C(F)(F)F)cc(-c4ccc(C(F)(F)F)cc4)nc23)c1 [Example 24, N-tert-Butyl-3-[7-trifluoromethyl-5-(4-trifluoromethyl-phenyl)-pyrazolo[1,5-a]pyrimidin-3-ylethynyl]-benzenesulfonamide] | 192 to 200
Cc1nc(N)ccc1C#Cc1cnn2c(C(F)(F)F)cc(-c3ccc(C(F)(F)F)cc3)nc12 [Example 128, 6-Methyl-5-[7-trifluoromethyl-5-(4-trifluoromethyl-phenyl)-pyrazolo[1,5-a]pyrimidin-3-ylethynyl]-pyridin-2-ylamine] | 251 to 254
Cc1cc(-c2ccc(C(F)(F)F)cc2)nc2c(C#Cc3cnc(N)nc3)cnn12 [Example 315, 5-[7-Methyl-5-(4-trifluoromethyl-phenyl)-pyrazolo[1,5-a]pyrimidin-3-ylethynyl]-pyrimidin-2-ylamine] | 246 to 248
NS(=O)(=O)c1cc(C#Cc2ncn3c(C(F)(F)F)cc(-c4ccc(C(F)(F)F)cc4)nc23)c(F)cc1F [Example 177, 2,4-Difluoro-5-[4-trifluoromethyl-2-(4-trifluoromethyl-phenyl)-imidazo[1,5-a]pyrimidin-8-ylethynyl]-benzenesulfonamide] | 247
